Laboratory results taken from patent US20250019373A1, “ARYL OR HETEROARYL DERIVATIVE, AND PHARMACEUTICAL COMPOSITION COMPRISING SAME AS ACTIVE INGREDIENT FOR PREVENTION OR TREATMENT OF KINASE-RELATED DISEASES” (VORONOI INC., priority 2021, published 2025).

System: HT-29 cells
Experiment: Cell necrosis inhibitory activity under necroptosis-inducing conditions (TNF-α, Z-VAD-FMK, LCL161) in HT-29 cells, Cell Titer-Glo
Format: cell-based
Details: Homo sapiens, 100 ng/mL TNF-α + 25 μM Z-VAD-FMK + Smac mimetic LCL161, 24 hours, cell viability
Method: To evaluate the cell necrosis inhibitory activity of the compound according to the present invention, an experiment was conducted as follows.
To evaluate the efficacy of inhibiting cell necrosis under TNF-α-mediated cell death-inducing conditions, a HT-29 cell line (Korean Cell Line Bank Accession No. #30038) was cultured in RPMI-1640 (HyClone #SH3027.01) medium containing 10% fetal bovine serum (FBS) and 1% penicillin/streptomycin to analyze cell viability. More specifically, for testing, the cell line was seeded in a 96-well flat bottom plate (Corning #3903) at a concentration of 10,000 cells/well and incubated at 37° C. under a 5% CO2 condition for 24 hours. Each well was treated with 100 ng/mL TNF-α, 25 μM pan-caspase inhibitor (Z-VAD-FMK, Selleckchem #S8102), and 10 µM Smac mimetic LCL161 (Selleckchem #S7009) and allowed to react for 10 minutes. The compounds of Examples were treated at 11 concentrations (the highest concentration being 0.1 μM or 1 μM) with a 3-fold concentration gradient, and as a control, dimethyl sulfoxide (DMSO) was treated at a concentration of 0.05% (v/v), which is the same as those when the compounds were treated. The treated cells were incubated for 24 hours. To confirm the degree of cell viability, 100 μL of Cell Titer-Glo (Promega #G7573) was added to the medium of the cultured cells and cultured for additional 10 minutes, and then luminescence was measured using a microplate reader. Based on the […] of control cells that were not treated with the compound, the degree of cell necrosis inhibitory activity was calculated according to the treatment concentration of each compound. Here, the concentration at which the cell necrosis inhibitory activity was 50% was determined as an EC50 (nM) value and calculated using Prism (ver. 8.4.3 #GraphPad) software.

`Cc1ncc(-c2ccc3nc(N)nn3c2)cc1NC(=O)N1OCC[C@H]1c1ccc(F)cc1` [Example 56, (S)-N-(5-(2-amino-[1,2,4]triazolo[1,5-a]pyridin-6-yl)-2-methylpyridin-3-yl)-3-(4-fluorophenyl)isoxazolidine-2-carboxamide] gave an EC50 of 700 pM.

Molecule `Cc1ncc(-c2ccc3nc(N)nn3c2)cc1NC(=O)N1OCC[C@H]1c1ccccc1` [Example 33, (S)-N-(5-(2-amino-[1,2,4]triazolo[1,5-a]pyridin-6-yl)-2-methylpyridin-3-yl)-3-phenylisoxazolidine-2-carboxamide] has an EC50 of 1200 pM.

`Cc1ccc(-c2ccc3nc(N)c(C(=O)[C@@H]4C[C@@H]4F)n3c2)cc1NC(=O)N1OCC[C@H]1c1ccccc1` [Example 135, (S)-N-(5-(2-amino-3-((1S,2S)-2-fluorocyclopropane-1-carbonyl)imidazo[1,2-a]pyridin-6-yl)-2-methylphenyl)-3-phenylisoxazolidine-2-carboxamide] gave an EC50 of 200 pM.

In the case of `Cc1ccc(-c2ccn3nc(N)nc3c2)cc1NC(=O)N1OCC[C@H]1c1ccc(F)cc1` [Example 64, (S)-N-(5-(2-amino-[1,2,4]triazolo[1,5-a]pyridin-7-yl)-2-methylphenyl)-3-(4-fluorophenyl)isoxazolidine-2-carboxamide], the EC50 is reported as 200 pM.

In the case of `Cc1ccc(-c2ccn3nc(N)nc3c2)cc1NC(=O)N1OCC[C@H]1c1ccc(C#N)cc1` [Example 92, (S)-N-(5-(2-amino-[1,2,4]triazolo[1,5-a]pyridin-7-yl)-2-methylphenyl)-3-(4-cyanophenyl)isoxazolidine-2-carboxamide], the EC50 is reported as 600 pM.

`COc1ncc(-c2ccc3nc(NC(=O)CO)cn3n2)cc1NC(=O)N1OCC[C@H]1c1ccccc1` [Example 5, (S)-N-(5-(2-(2-hydroxyacetamido)imidazo[1,2-b]pyridazin-6-yl)-2-methoxypyridin-3-yl)-3-phenylisoxazolidine-2-carboxamide] showed an EC50 of 2900 pM.

`CC(=O)Nc1cn2nc(-c3cccc(NC(=O)N4OCC[C@H]4c4ccccc4)c3)ccc2n1` [Example 1, (S)-N-(3-(2-acetamidoimidazo[1,2-b]pyridazin-6-yl)phenyl)-3-phenylisoxazolidine-2-carboxamide] gave an EC50 of 900 pM.

`Nc1nc2ccc(-c3ccc(Cl)c(NC(=O)N4OCC[C@H]4c4ccccc4)c3)cn2n1` [Example 97, (S)-N-(5-(2-amino-[1,2,4]triazolo[1,5-a]pyridin-6-yl)-2-chlorophenyl)-3-phenylisoxazolidine-2-carboxamide] gave an EC50 of 1100 pM.

Molecule `Cc1ccc(-c2ccn3ncnc3c2)cc1NC(=O)N1OCC[C@H]1c1ccccc1` [Example 102, (S)-N-(5-([1,2,4]triazolo[1,5-a]pyridin-7-yl)-2-methylphenyl)-3-phenylisoxazolidine-2-carboxamide] has an EC50 of 900 pM.

`CNC(=O)c1n[nH]c2cc(-c3cccc(NC(=O)N4OCC[C@H]4c4ccccc4)c3)ccc12` [Example 17, (S)-N-(3-(3-(methylcarbamoyl)-1H-indazol-6-yl)phenyl)-3-phenylisoxazolidine-2-carboxamide] gave an EC50 of 100 pM.

`COc1ncc(-c2ccc3nc(NC(C)=O)oc3c2)cc1NC(=O)N1OCC[C@H]1c1ccccc1` [Example 13, (S)-N-(5-(2-acetamidobenzo[d]oxazol-6-yl)-2-methoxypyridin-3-yl)-3-phenylisoxazolidine-2-carboxamide] showed an EC50 of 2600 pM.

With `COc1ccc(-c2ccn3nc(N)nc3c2)c(F)c1NC(=O)N1OCC[C@H]1c1ccccc1` [Example 103, (S)-N-(3-(2-amino-[1,2,4]triazolo[1,5-a]pyridin-7-yl)-2-fluoro-6-methoxyphenyl)-3-phenylisoxazolidine-2-carboxamide] the EC50 was 15600 pM.

With `Cc1ccc(-c2ccc3nc(N)nn3c2)cc1NC(=O)N1OCC[C@H]1c1ccc(F)cc1` [Example 66, (S)-N-(5-(2-amino-[1,2,4]triazolo[1,5-a]pyridin-6-yl)-2-methylphenyl)-3-(4-fluorophenyl)isoxazolidine-2-carboxamide] the EC50 was 400 pM.

`Cc1ccc(-c2ccn3nc(N)nc3c2)cc1NC(=O)N1OCC[C@H]1c1cccc(F)c1` [Example 62, (S)-N-(5-(2-amino-[1,2,4]triazolo[1,5-a]pyridin-7-yl)-2-methylphenyl)-3-(3-fluorophenyl)isoxazolidine-2-carboxamide] gave an EC50 of 200 pM.

In the case of `Nc1nc2cc(-c3ccc(F)c(NC(=O)N4OCC[C@H]4c4ccccc4)c3)ccn2n1` [Example 123, (S)-N-(5-(2-amino-[1,2,4]triazolo[1,5-a]pyridin-7-yl)-2-fluorophenyl)-3-phenylisoxazolidine-2-carboxamide], the EC50 is reported as 300 pM.

For `COc1ccc(-c2ccc3nc(NC(C)=O)sc3c2)cc1NC(=O)N1OCC[C@H]1c1ccccc1` [Example 27, (S)-N-(5-(2-acetamidobenzo[d]thiazol-6-yl)-2-methoxyphenyl)-3-phenylisoxazolidine-2-carboxamide], the EC50 was 1000 pM.

With `COc1ncc(-c2ccc3c(N)ncnn23)cc1NC(=O)N1OCC[C@H]1c1ccccc1` [Example 99, (S)-N-(5-(4-aminopyrrolo[2,1-f][1,2,4]triazin-7-yl)-2-methoxypyridin-3-yl)-3-phenylisoxazolidine-2-carboxamide] the EC50 was 8200 pM.

Work on `COc1ncc(-c2ccc3nc(NC(C)=O)sc3c2)cc1NC(=O)N1OCC[C@H]1c1ccccc1` [Example 26, (S)-N-(5-(2-acetamidobenzo[d]thiazol-6-yl)-2-methoxypyridin-3-yl)-3-phenylisoxazolidine-2-carboxamide] yielded an EC50 of 700 pM.

`Cc1ccc(-c2ccc3nc(N)nn3c2)cc1NC(=O)N1OCC[C@H]1c1cccc(F)c1` [Example 60, (S)-N-(5-(2-amino-[1,2,4]triazolo[1,5-a]pyridin-6-yl)-2-methylphenyl)-3-(3-fluorophenyl)isoxazolidine-2-carboxamide] showed an EC50 of 400 pM.

Work on `Cc1ncc(-c2csc3c(N)ncnc23)cc1NC(=O)N1OCC[C@H]1c1ccccc1` [Example 121, (S)-N-(5-(4-aminothieno[3,2-d]pyrimidine-7-y1)-2-methylpyridin-3-yl)-3-phenylisoxazolidine-2-carboxamide] yielded an EC50 of 11700 pM.

Work on `COc1ncc(-c2ccn3nc(N)nc3c2)cc1NC(=O)N1OCC[C@H]1c1cccc(F)c1` [Example 53, (S)-N-(5-(2-amino-[1,2,4]triazolo[1,5-a]pyridin-7-yl)-2-methoxypyridin-3-yl)-3-(3-fluorophenyl)isoxazolidine-2-carboxamide] yielded an EC50 of 500 pM.

`Cc1ccc(-c2csc3c(N)ncnc23)cc1NC(=O)N1OCC[C@H]1c1ccccc1` [Example 122, (S)-N-(5-(4-aminothieno[3,2-d]pyrimidine-7-yl)-2-methylphenyl)-3-phenylisoxazolidine-2-carboxamide] gave an EC50 of 20400 pM.

Work on `CNC(=O)c1n[nH]c2cc(-c3cnc(C)c(NC(=O)N4OCC[C@H]4c4ccccc4)c3)ccc12` [Example 21, (S)-N-(2-methyl-5-(3-(methylcarbamoyl)-1H-indazol-6-yl)pyridin-3-yl)-3-phenylisoxazolidine-2-carboxamide] yielded an EC50 of 400 pM.

For `COc1ncc(-c2ccc3nnn(C(C)C)c3c2)cc1NC(=O)N1OCC[C@H]1c1ccccc1` [Example 12, (S)-N-(5-(1-isopropyl-1H-benzo[d][1,2,3]triazol-6-yl)-2-methoxypyridin-3-yl)-3-phenylisoxazolidine-2-carboxamide], the EC50 was 13700 pM.

`Cc1ccc(-c2ccc3ncc(C#N)n3n2)cc1NC(=O)N1OCC[C@H]1c1ccccc1` [Example 118, (S)-N-(5-(3-cyanoimidazo[1,2-b]pyridazin-6-yl)-2-methylphenyl)-3-phenylisoxazolidine-2-carboxamide] gave an EC50 of 4300 pM.
